# Values joined by “and” are separate entries in the source; they are usually repeats but may differ in a detail not shown here. Equal entries are not always repeated.
# Test system: Ca^2+ channel (L, verapamil site)
# Experiment: Equilibrium binding competition on type-L calcium channels, verapamil site ([3H](-)D 888 displacement)
# Design: species or system rat
# Details: for Mean % of binding / % of binding / Mean % of inhibition: Argireline 1.0%, magnesium gluconate 1 × 10^−4 M, combination 1 × 10^−4 M/1.0%; for % of binding: individual determinations, specific binding of 0.5 nM (3H)(-)D 888, rat cerebral cortex homogenates; for Mean % of inhibition: inhibition of specific binding
# Experimental: The studies were performed using rat cerebral cortex homogenates (isolated membranes having type-L calcium channels at their surface).
# The principle of an equilibrium displacement experiment includes measuring the specific binding at equilibrium, of a given concentration of radiolabelled ligand in the presence of a variable and increasing concentration of cold ligand. The cold ligand enters into competition with the radioactive ligand for its binding to the receptor; this is why this may be termed binding competition at equilibrium.
# The experimental conditions according to the protocol described by Reynolds, I. J. et al., J. Pharmacol. Exp. Ther., vol. 237, p.
# D 888 and D 600 are the reference molecules specific for the type-L calcium channels, verapamil site.
# The specific binding of a ligand (labelled D 888) to the receptors (type-L calcium channels, verapamil site) is defined as the difference between the total binding and the […] determined in the presence of an excess of cold ligand. The results are expressed as a percentage of specific binding and as a percentage of inhibition of specific binding in the presence of the test compounds (Argireline®).
Substance,Mean % of binding [%],mean percentage of inhibition (Argireline at 5%) [%],mean percentage of inhibition (Argireline at 10%) [%],% of binding,Mean % of inhibition [%],"effect on the type-L calcium channels, verapamil site (in words) (used alone at concentrations of 1×10^−6 M to 1×10^−4 M)"
"Acetyl glutamyl-glutamyl-methionyl-glutaminyl-arginyl-arginylamide (Ac-EEMQRR-NH2) [Argireline ®, supplied at 0.05% in water]",96.1,36,52,95.1% and 93.1% and 99.9%,4,
Magnesium gluconate,94.0,,,93.8% and 95.2% and 93.0%,6,moderate effects
